{"source": "patent US20050282910A1", "about": "“Methods of application of chemical compounds having therapeutic activities in treating cancers” (priority 2003, published 2005)", "key": {"MCF7": {"test_system": "MCF7", "assay": "Enhancement of anticancer agent-induced apoptosis and necrosis, Anexin V-FITC/PI", "format": "cell-based, human", "details": "48 hours; for Apoptotic + necrotic (%): MCF7, doxorubicin 0.5 μg/ml, Schisandrin B 20 μg/ml", "method": "(§1) To illustrate the activities of Schisandrin B or its analogs enhancing the apoptosis of cancer cells induced by an anticancer agent according to the present disclosure, human cancer cell line SMMC7721, a non-drug-resistant hepatic cancer cell line, and MCF7, a non-drug-resistant breast cancer cell line, were selected for use. Assays were carried out in triplicates against SMMC7721 or MCF7. […] Cells were collected and the apoptotic cells and necrotic cell percentages were determined using Anexin V-FITC/PI kit (Sigma, St. Louis, Mo., USA) according to manufacturer's instructions. Alternatively, the apoptotic and necrotic cell percentages were measured using DNA Plus kit (Becton-Dickinson, USA) according to the manufacturer's instructions."}, "SMMC7721": {"test_system": "SMMC7721", "assay": "Enhancement of anticancer agent-induced apoptosis and necrosis, Anexin V-FITC/PI", "format": "cell-based, human", "details": "48 hours; for Apoptotic(%) / Necrotic(%): doxorubicin 0.5 μg/ml", "method": "as §1"}, "[1]": {"test_system": "human leukemia MDR cell line K562/adr", "assay": "Reversal of P-glycoprotein-mediated drug resistance by Schisandrin A, Schisandrol A, Schisantherin A, MTT cytotoxicity of anticancer agents", "format": "cell-based", "details": "for IC50: Homo sapiens", "method": "Assays were carried out in triplicate against human leukemia MDR cell line K562/adr, human breast cancer MDR cell line MCF7/adr, and human epidermoid carcinoma MDR cell line KBv200."}, "MRP1": {"target": "T1, MRP1 (Homo sapiens, UniProt P33527)", "T1 construct": "human cancer cell line HL60/adr, an MDR cell line characterized by MRP1 overexpression; endogenous in cells; host or cells: HL60/adr (human MDR cancer cell line)", "T1 sequence (P33527 whole entry)": "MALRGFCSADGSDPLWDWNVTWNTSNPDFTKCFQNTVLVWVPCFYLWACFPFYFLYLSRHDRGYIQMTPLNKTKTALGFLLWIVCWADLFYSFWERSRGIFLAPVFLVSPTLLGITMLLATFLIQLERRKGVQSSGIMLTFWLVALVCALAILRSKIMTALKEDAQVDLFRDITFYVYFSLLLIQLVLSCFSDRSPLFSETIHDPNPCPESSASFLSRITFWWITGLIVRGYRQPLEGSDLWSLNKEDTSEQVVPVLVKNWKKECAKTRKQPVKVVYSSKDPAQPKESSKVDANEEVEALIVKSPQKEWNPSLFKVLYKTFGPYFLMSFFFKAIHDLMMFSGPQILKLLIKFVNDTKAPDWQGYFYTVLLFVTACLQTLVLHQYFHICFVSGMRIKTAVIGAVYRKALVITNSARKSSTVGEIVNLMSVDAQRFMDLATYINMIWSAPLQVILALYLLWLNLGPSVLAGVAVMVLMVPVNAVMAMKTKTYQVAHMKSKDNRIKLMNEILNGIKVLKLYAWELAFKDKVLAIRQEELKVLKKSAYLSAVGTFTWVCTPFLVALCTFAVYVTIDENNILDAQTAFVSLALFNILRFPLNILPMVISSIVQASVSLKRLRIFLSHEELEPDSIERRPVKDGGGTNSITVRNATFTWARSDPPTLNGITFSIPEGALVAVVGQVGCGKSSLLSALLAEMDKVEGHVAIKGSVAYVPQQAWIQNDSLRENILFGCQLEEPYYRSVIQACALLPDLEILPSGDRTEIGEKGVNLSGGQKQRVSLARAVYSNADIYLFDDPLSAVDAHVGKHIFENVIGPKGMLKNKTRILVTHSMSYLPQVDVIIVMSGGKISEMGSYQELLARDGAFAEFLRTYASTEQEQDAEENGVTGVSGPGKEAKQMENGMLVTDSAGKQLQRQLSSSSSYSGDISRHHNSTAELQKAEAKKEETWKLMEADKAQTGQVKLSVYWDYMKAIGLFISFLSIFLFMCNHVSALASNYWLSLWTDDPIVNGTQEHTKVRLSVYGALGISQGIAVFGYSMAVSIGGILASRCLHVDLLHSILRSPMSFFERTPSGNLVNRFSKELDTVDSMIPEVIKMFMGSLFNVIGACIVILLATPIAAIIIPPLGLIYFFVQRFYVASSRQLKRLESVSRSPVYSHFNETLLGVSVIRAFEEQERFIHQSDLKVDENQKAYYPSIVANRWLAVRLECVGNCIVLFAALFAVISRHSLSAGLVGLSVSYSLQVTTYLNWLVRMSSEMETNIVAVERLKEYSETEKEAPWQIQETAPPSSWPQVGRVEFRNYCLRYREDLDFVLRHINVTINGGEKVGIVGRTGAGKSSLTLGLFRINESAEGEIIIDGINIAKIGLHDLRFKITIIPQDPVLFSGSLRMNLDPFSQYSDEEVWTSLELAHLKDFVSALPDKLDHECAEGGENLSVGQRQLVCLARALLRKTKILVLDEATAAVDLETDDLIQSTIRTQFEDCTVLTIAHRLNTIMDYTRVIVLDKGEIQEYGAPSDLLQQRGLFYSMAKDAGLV", "assay": "Daunorubicin accumulation in HL60/adr cells (MRP1-mediated drug efflux), flow cytometry", "format": "cell-based", "details": "2 μg/ml daunorubicin", "text": "MRP1 functions as a drug pump that unilaterally pumps the anticancer agents out of MDR cancer cells. Inhibition of MRP1 results in an increase of intracellular drug concentration within cancer cells."}, "HL60/adr": {"test_system": "HL60/adr", "assay": "Reversal of MRP1-mediated drug resistance, MTT cytotoxicity of anticancer agents", "format": "cell-based, human", "details": "for drug sensitivity of HL60/adr toward the anticancer agents (in words): compound 10 μg/ml; for RF (reversal folds of vincristine resistance): HL60/adr", "method": "Assays were carried out in triplicate against MDR cancer cell HL60/adr. MTT assays as described previously (X."}, "[2]": {"test_system": "human breast cancer MDR cell line MCF7/adr", "assay": "cells", "details": "NCI/ADR-RES, 72 h"}, "KBv200": {"test_system": "KBv200", "assay": "Reversal of drug resistance by ethanol extracts of Schisandra chinensis fruit, MTT cytotoxicity of anticancer agents", "details": "Homo sapiens, KBv200, 72 h, read-out: IC50 (ng/ml) −ethanol extract"}, "[3]": {"test_system": "human epidermoid carcinoma MDR cell line KBv200", "details": "72 hours"}, "MCF7/adr": {"test_system": "MCF7/adr", "assay": "Reversal of drug resistance by ethanol extracts of Schisandra chinensis fruit, MTT cytotoxicity of anticancer agents"}, "[4]": {"test_system": "human breast cancer MDR cell line MCF7/adr", "details": "72 hours"}, "K562/adr": {"test_system": "K562/adr", "assay": "Reversal of drug resistance by ethanol extracts of Schisandra chinensis fruit, MTT cytotoxicity of anticancer agents", "format": "cell-based, human", "details": "anticancer agent in the presence of ethanol extracts (50 μg/ml), 72 hours", "method": "Assays were carried out in triplicate against human MDR cancer cell lines K562/adr, KBv200, and MCF7/adr. […] Alternatively, flow cytometry assays using FACS Calibur equipped with software Cellquest 3.1f (Becton-Dickinson, Holbrook, N.J.) were applied to count the cell numbers in each sample."}, "[5]": {"test_system": "human epidermoid carcinoma MDR cell line KBv200", "assay": "cells", "details": "KBv200, 72 h"}, "[6]": {"details": "SMMC7721, Schisandrin B 20 μg/ml"}, "[7]": {"details": "read-out: IC50 (ng/ml) −Schisandrin A"}, "[8]": {"details": "read-out: IC50 (ng/ml) −Schisantherin A"}, "[9]": {"details": "anticancer agent in the presence of Schisandrin A (10 μg/ml)"}, "[10]": {"details": "anticancer agent in the presence of Schisantherin A (10 μg/ml)"}, "[11]": {"details": "Schisandrin B 20 μg/ml with doxorubicin 0.5 μg/ml"}}, "note": "Read-outs that look alike come from different tables or passages of the source.", "data": [{"smiles": "COc1cccc2c1C(=O)c1c(O)c3c(c(O)c1C2=O)C[C@@](O)(C(=O)CO)C[C@@H]3O[C@H]1C[C@H](N)[C@H](O)[C@H](C)O1", "note": "[doxorubicin]", "values": [{"measurement": "Apoptotic + necrotic (%)", "setting": "MCF7", "result": "7.2 ± 0.8", "unit": "%"}, {"measurement": "Apoptotic(%)", "setting": "SMMC7721; [6]", "result": "5.2 ± 2.6", "unit": "%"}, {"measurement": "Necrotic(%)", "setting": "SMMC7721; [6]", "result": "16.5 ± 4.3", "unit": "%"}, {"measurement": "IC50", "setting": "[1]; K562/Adr, read-out: IC50 of doxorubicin toward K562/adr, in the absence of Schisandrol A", "result": "875 ± 248", "unit": "ng/mL"}, {"measurement": "IC50", "setting": "[1]; K562/Adr, read-out: IC50 of doxorubicin toward K562/adr, in the presence of Schisandrol A (10 μg/ml)", "result": "168 ± 43", "unit": "ng/mL"}]}, {"smiles": "COc1cc2c(c(OC)c1OC)-c1c(cc(OC)c(OC)c1OC)C[C@H](C)[C@H](C)C2", "note": "[Schisandrin A]", "values": [{"measurement": "daunorubicin accumulation within HL60/adr cells (in words)", "setting": "MRP1; 60 minutes, FIG. 7", "result": "increased with the increasing concentration"}, {"measurement": "sensitivity of MDR cancer cell K562/adr to daunorubicin (in words)", "setting": "[1]; FIG. 3", "result": "increase the sensitivity"}, {"measurement": "increase of sensitivity of K562/adr to daunorubicin", "setting": "[1]; Schisandrin A 1 μg/ml, FIG. 3", "result": "about 8 folds"}, {"measurement": "increase of sensitivity of K562/adr to daunorubicin", "setting": "[1]; Schisandrin A 10 μg/ml, FIG. 3", "result": "~71", "unit": "folds"}, {"measurement": "increase of sensitivity of K562/adr to daunorubicin", "setting": "[1]; Schisandrin A 20 μg/ml, FIG. 3", "result": "~100", "unit": "folds"}, {"measurement": "drug sensitivity of HL60/adr toward the anticancer agents (in words)", "setting": "HL60/adr", "result": "enhanced"}]}, {"smiles": "COc1cccc2c1C(=O)c1c(O)c3c(c(O)c1C2=O)C[C@@](O)(C(C)=O)C[C@@H]3O[C@H]1C[C@H](N)[C@H](O)[C@H](C)O1", "note": "[Daunorubicin]", "values": [{"measurement": "IC50", "setting": "[2]; [7]", "result": "2560 ± 413", "unit": "ng/mL"}, {"measurement": "IC50", "setting": "[2]; [8]", "result": "812 ± 193", "unit": "ng/mL"}, {"measurement": "IC50", "setting": "KBv200", "result": "20 ± 8", "unit": "ng/mL"}, {"measurement": "IC50 (ng/ml) +Schisandrin A", "setting": "[3]; [9]", "result": "2.47 ± 0.9", "unit": "ng/mL"}, {"measurement": "IC50 (ng/ml) +Schisantherin A", "setting": "[3]; [10]", "result": "3.4 ± 1.3", "unit": "ng/mL"}, {"measurement": "IC50", "setting": "[1]; K562/adr, anticancer agent in the absence of Schisandrin A, 72 hours, read-out: IC50 (ng/ml) −Schisandrin A", "result": "4780 ± 1380", "unit": "ng/mL"}, {"measurement": "IC50", "setting": "[1]; K562/adr, anticancer agent in the absence of Schisantherin A, 72 hours, read-out: IC50 (ng/ml) −Schisantherin A", "result": "1300 ± 293", "unit": "ng/mL"}, {"measurement": "IC50 (ng/ml) +Schisandrin A", "setting": "[1]; K562/adr, anticancer agent in the presence of Schisandrin A (10 μg/ml), 72 hours", "result": "67.2 ± 21.3", "unit": "ng/mL"}, {"measurement": "IC50 (ng/ml) +Schisantherin A", "setting": "[1]; K562/adr, anticancer agent in the presence of Schisantherin A (10 μg/ml), 72 hours", "result": "71 ± 22", "unit": "ng/mL"}, {"measurement": "IC50", "setting": "MCF7/adr; Homo sapiens, NCI/ADR-RES, 72 h, read-out: IC50 (ng/ml) −ethanol extract", "result": "320 ± 71", "unit": "ng/mL"}, {"measurement": "IC50 (ng/ml) +ethanol extract", "setting": "MCF7/adr; MCF7/adr, anticancer agent in the presence of ethanol extracts (50 μg/ml), 72 hours", "result": "31 ± 10", "unit": "ng/mL"}, {"measurement": "IC50 (ng/ml) +Schisandrin A", "setting": "[4]; [9]", "result": "245 ± 46", "unit": "ng/mL"}, {"measurement": "IC50 (ng/ml) +Schisantherin A", "setting": "[4]; [10]", "result": "58.8 ± 21", "unit": "ng/mL"}, {"measurement": "IC50 (ng/ml) +ethanol extract", "setting": "K562/adr", "result": "150 ± 19", "unit": "ng/mL"}, {"measurement": "IC50", "setting": "[5]; [7]", "result": "26.9 ± 8.1", "unit": "ng/mL"}, {"measurement": "IC50", "setting": "[5]; [8]", "result": "26.9 ± 4.3", "unit": "ng/mL"}]}, {"smiles": "COc1cc2c(c(OC)c1OC)-c1c(cc3c(c1OC)OCO3)C[C@@H](C)[C@@H](C)C2", "note": "[Schisandrin B]", "values": [{"measurement": "Apoptotic + necrotic (%)", "setting": "MCF7", "result": "1.9 ± 0.1", "unit": "%"}, {"measurement": "apoptosis and necrosis of MCF7 induced by doxorubicin (in words)", "setting": "MCF7; [11]", "result": "significantly enhanced"}, {"measurement": "Apoptotic(%)", "setting": "SMMC7721; [6]", "result": "2.4 ± 2.1", "unit": "%"}, {"measurement": "Necrotic(%)", "setting": "SMMC7721; [6]", "result": "1.5 ± 0.9", "unit": "%"}, {"measurement": "Apoptotic + necrotic (%)", "setting": "SMMC7721; SMMC7721, vincristine 0.5 μg/ml, Schisandrin B 20 μg/ml", "result": "2.6 ± 0.4", "unit": "%"}, {"measurement": "apoptosis and necrosis of SMMC7721 cells induced by doxorubicin (in words)", "setting": "SMMC7721; [11]", "result": "significantly enhanced"}, {"measurement": "apoptosis and necrosis of SMMC7721 induced by vincristine (in words)", "setting": "SMMC7721; Schisandrin B 20 μg/ml with vincristine 0.5 μg/ml", "result": "significantly enhanced"}, {"measurement": "daunorubicin accumulation within HL60/adr cells (in words)", "setting": "MRP1; 90 minutes, FIG. 6", "result": "increased proportionately with increasing concentration"}, {"measurement": "daunorubicin accumulation in HL60/adr cells versus absence of Schisandrin B", "setting": "MRP1; Schisandrin B 20 μg/ml, 90 minutes, FIG. 6", "result": 4, "unit": "folds"}, {"measurement": "RF (reversal folds of vincristine resistance)", "setting": "HL60/adr; Schisandrin B 10 μg/ml", "result": "~10.5"}, {"measurement": "RF (reversal folds of vincristine resistance)", "setting": "HL60/adr; Schisandrin B 20 μg/ml", "result": ">42"}, {"measurement": "drug sensitivity of HL60/adr toward the anticancer agents (in words)", "setting": "HL60/adr", "result": "enhanced"}]}]}
